The target in experiment [1] is Serine/threonine-protein kinase PAK 4 (Homo sapiens, UniProt O96013). The experiment is described as follows: Inhibition of PAK4 (unknown origin) using S2 as substrate incubated for 60 mins in the presence of ATP by time-resolved HTRF assay.
Experiment [2] deals with T1, Serine/threonine-protein kinase PLK4 (Homo sapiens) (UniProt O00444).
T1 sequence (whole entry): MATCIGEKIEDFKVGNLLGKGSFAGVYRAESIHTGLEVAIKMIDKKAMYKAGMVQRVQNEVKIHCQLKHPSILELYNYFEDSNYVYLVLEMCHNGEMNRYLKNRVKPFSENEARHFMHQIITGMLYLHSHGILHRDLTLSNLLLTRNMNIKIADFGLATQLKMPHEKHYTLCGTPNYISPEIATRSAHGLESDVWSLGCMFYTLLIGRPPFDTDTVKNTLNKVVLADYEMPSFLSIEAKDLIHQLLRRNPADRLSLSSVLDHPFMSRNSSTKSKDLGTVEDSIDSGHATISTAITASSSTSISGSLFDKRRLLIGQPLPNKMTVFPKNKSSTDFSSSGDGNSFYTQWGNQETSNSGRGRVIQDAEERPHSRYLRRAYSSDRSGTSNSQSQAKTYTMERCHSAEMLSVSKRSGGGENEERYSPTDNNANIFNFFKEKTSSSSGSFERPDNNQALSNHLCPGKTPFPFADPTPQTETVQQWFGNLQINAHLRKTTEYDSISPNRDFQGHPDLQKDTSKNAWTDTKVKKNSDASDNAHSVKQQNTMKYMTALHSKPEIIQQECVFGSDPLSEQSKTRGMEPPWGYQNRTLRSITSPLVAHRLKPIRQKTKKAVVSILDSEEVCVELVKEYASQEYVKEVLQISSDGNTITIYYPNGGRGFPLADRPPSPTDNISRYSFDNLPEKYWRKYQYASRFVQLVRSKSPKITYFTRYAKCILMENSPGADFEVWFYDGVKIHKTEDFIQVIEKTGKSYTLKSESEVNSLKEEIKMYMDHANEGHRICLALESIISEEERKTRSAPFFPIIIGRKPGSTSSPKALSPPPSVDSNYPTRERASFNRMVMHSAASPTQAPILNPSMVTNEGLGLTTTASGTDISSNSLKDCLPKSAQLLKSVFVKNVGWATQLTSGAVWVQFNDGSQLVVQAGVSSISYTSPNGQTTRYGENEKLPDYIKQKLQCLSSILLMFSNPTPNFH
The experiment is described as follows: Inhibition of PLK4 (unknown origin) at 2 uM relative to control.

Experiment [3] has as its target T2, Serine/threonine-protein kinase PLK4 (Homo sapiens, UniProt O00444).
T2 sequence (O00444 whole entry): T1 sequence (whole entry)
The experiment is described as follows: Inhibition of PLK4 (unknown origin).

Sequence of Serine/threonine-protein kinase PAK 4 (O96013 whole entry): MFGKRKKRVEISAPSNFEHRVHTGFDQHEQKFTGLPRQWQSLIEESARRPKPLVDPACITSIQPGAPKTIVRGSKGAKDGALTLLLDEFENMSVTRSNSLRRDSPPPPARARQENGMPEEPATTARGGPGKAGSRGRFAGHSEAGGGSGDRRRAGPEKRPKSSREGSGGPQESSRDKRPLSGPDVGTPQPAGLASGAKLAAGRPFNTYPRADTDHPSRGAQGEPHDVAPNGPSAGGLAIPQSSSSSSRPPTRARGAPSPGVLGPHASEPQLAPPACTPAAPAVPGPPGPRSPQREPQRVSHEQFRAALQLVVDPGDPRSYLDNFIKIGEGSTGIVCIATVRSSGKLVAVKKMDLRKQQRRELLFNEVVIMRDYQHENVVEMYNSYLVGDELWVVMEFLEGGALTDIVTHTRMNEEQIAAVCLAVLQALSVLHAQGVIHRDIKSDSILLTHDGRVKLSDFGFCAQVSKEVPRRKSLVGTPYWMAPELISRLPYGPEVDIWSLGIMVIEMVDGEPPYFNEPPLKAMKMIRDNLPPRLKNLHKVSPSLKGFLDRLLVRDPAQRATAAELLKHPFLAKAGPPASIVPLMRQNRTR

As for `Cc1cc(Nc2cc(Cc3ccccc3)nc(NC3CCNCC3)n2)n[nH]1`, the IC50 (in general, the concentration needed to halve the response being measured) is 5.9 nM in experiment [1] and 351 nM in experiment [3]. The inhibition (as a rule, the change of the read-out against control, counted positive when it falls) in experiment [2] was 58.4%.

For the origin of these results see ChEMBL document CHEMBL5113403, “Design, synthesis, and biological evaluation of novel pyrazolo [3,4-d]pyrimidine derivatives as potent PLK4 inhibitors for the treatment of TRIM37-amplified breast cancer” (Eur J Med Chem, 2022).
